1 compound from patent US9994548B2, “Phenyl-substituted nicotinic ligands, and methods of use thereof” (Georgetown University, priority 2011, dated 2018) can be followed below.

The target of data set [1] is T1, α3β4 nAChR (Rattus norvegicus, UniProt P04757+P12392).
T1 construct: expressed in transfected cells; host or cells: HEK 293 (KXα3β4R2)
Briefly: [3H]-epibatidine radioligand competition binding assay. The conditions noted are these: competition against [3H]-epibatidine, stably transfected cell membranes; read-out: Ki α3β4. The method, then:
(§1) Stably transfected cell lines, tissue culture conditions, membrane preparation procedures and binding assays were described previously. Briefly, cultured cells at >80% confluence were removed from their flasks (80 cm^2) with a disposable cell scraper and placed in 10 mL of 50 mM Tris.HCl buffer (pH 7.4, 4° C.). The cell suspension was centrifuged at 10,000×g for 5 min and the pellet was collected. The cell pellet was then homogenized in 10 mL buffer with a polytron homogenizer and centrifuged at 36,000 g for 10 min at 4° C. The membrane pellet was resuspended in fresh buffer, and aliquots of the membrane preparation were used for binding assays. The concentration of [^3H]-epibatidine used was ˜500 pM for competition binding assays. […] Bound and free ligands were separated by vacuum filtration through Whatman GF/C filters treated with 0.5% polyethylenimine. The filter-retained radioactivity was measured by liquid scintillation counting. Specific binding was defined as the difference between total binding and nonspecific binding. Data from competition binding assays were analyzed using Prism 5 (GraphPad Software, San Diego, Calif.).
(§2) The in vitro binding affinities of the new ligands were measured for defined receptor subtypes (α2β2, α2β4, α3β2, α3β4, α4β2, α4β4, α6β2, α6β4, and α7) expressed in stably transfected cell lines. [^3H]Epibatidine ([^3H]EB) binds to the agonist recognition site of all of the defined receptor subtypes with high affinities. Rat forebrain homogenates were included to allow comparison between the heterologous and native α4β2 and α7 nAChRs. See FIG. 18 for binding affinity values (Ki) of the ligands at the three major nAChR subtypes (α3β4, […], and α7).
(§3) The binding affinities of all compounds synthesized for the receptor subtypes were examined in binding competition studies against [^3H]-epibatidine.
In general terms: Displacement assays read how much labelled ligand stays bound in the presence of the test substance.

Data set [2] deals with T2, α4β2 nAChR (Rattus norvegicus, UniProt P09483+P12390).
T2 construct: expressed in transfected cells
Described as above. The conditions noted are these: competition against [3H]-epibatidine, stably transfected cell membranes; read-out: Ki α4β2. The method, then: as §1, §2, §3

Data set [3] has as its target T3, α7 nAChR (Rattus norvegicus, UniProt Q05941).
T3 construct: expressed in transfected cells
Described as above. The conditions noted are these: competition against [3H]-epibatidine. The method, then: as §1, §2, §3

The test system of data set [4] is locomotor activity. Description: Locomotor activity in figure-8 maze. Type of data set: in vivo, rat. The conditions noted are these: 1-hour session. The method, then: The studies were conducted in accordance with the regulations outlined by the Duke University Animal Care and Use Committee. The rats housed in approved standard laboratory conditions in a Duke University vivarium facility near the testing room to minimize stress induced by transporting the rats. The rats were kept on a 12:12 reverse day/night cycle, so that they were in their active phase during behavioral testing. The rats in the drug iv self-administration studies were singly housed to prevent them from damaging each other's catheters. The rats in the locomotor activity studies were housed in groups of 2-3. All rats were allowed access to water at all times; the rats in the nicotine-self-administration study were fed daily approximately 30 minutes after completing the sessions while those in the locomotor activity study had continuous access to food.
VMY-2-95 was injected s.c. 10 minutes before testing in a volume of 1 mL/kg of saline. The doses (0, 0.3, 1 and 3 mg/kg) were given in a counterbalanced order with at least two days between successive injections.
Another set of rats (N=12) was tested for acute VMY-2-95 effects on locomotor activity in a figure-8 maze over the course of a 1-hour session (see FIG. 10). […] Numbers of photobeam breaks were recorded for five minutes blocks over the one-hour session. […]

Data set [5] has as its system 41 other targets, including many CNS receptors and transporters. Description: NIMH PDSP binding assays for targets other than nAChRs. The method, then:
All binding assays for targets other than nAChRs were performed by the National Institute of Mental Health's Psychoactive Drug Screening Program (PDSP) supported by NIMH grant HHSN-271-2008-00025-C(PI: Bryan Roth). For experimental details (Ki determinations, receptor binding profiles, functional data, MDR1 data, etc. as appropriate) refer to the PDSP web site http://pdsp.med.unc.edu/.
To determine affinities of the lead compound, VMY-2-95, for targets other than neuronal nAChRs, we tested VMY-2-95 in binding assays using 41 other targets, including many CNS receptors and transporters. […] The Ki values of VMY-2-95 at these 9 targets were determined by performing secondary binding assays using a series of concentrations of VMY-2-95. […] Furthermore, the binding affinity of VMY-2-95 for α4β2 nAChRs is at least 3,000 times higher than that for any of those 9 targets.

Where [6] appears, read: 10 μM, 41 targets, primary binding assays.

SMILES strings stand for the structures.

`C(#Cc1cncc(OC[C@@H]2CCN2)c1)c1ccccc1` [VMY-2-95, (S)-3-(azetidin-2-ylmethoxy)-5-(phenylethynyl)pyridine]: the Ki came out at 650 nM in data set [1], 0.049 nM in data set [2] and 580 nM in data set [3]. The “dose at peak of increased locomotor activity” value in data set [4] (s.c.) is reported as 1 mg/kg. The locomotor activity result in data set [4] (three doses tested (0.3, 1, 3 mg/kg s.c.)) is given as “significantly increased”. For the same compound, the “number of targets "hit" (more than 50% inhibition of binding)” value in data set [5] (setting [6]) was 9. For the same compound, the “number of targets "miss" (less than 50% inhibition of binding)” value in data set [5] (setting [6]) came out at 32. The “binding affinity for α4β2 nAChRs relative to the 9 hit targets” value in data set [5] (Ki from secondary binding assays) is recorded as “at least 3,000 times”.

A word on the Ki: it is the dissociation constant of the complex between target and ligand, obtained from inhibition or displacement.
